Data reported in patent US20220143224A1, “MRI CONTRAST AGENT FOR USE IN THE DIAGNOSIS OF EARLY CHANGES IN THE ENDOTHELIUM OF BLOOD VESSELS” (UNIWERSYTET JAGIELLONSKI, priority 2019, published 2022).

Columns and labels:
[1] = system: abdominal aorta (AA) in ApoE/LDLR−/− mice; assay: MRI-based endothelium-dependent response to acetylcholine in abdominal aorta; assay type: in vivo; settings: for AA volume change: intraperitoneal Ach, 25 minutes after administration; for change in AA volume: paradoxical vasoconstriction
Method: (§1) The experiments were performed using female ApoE/LDLR−/− mice of different ages: 4-, 6-, 8-, 12- and 28-week-old(19) in comparison to control young (8-week-old) mice (C57BL/6) without endothelial dysfunction. All mice (body weight 20-30 g) were housed under standard pathogen-free conditions (LD: 12/12, humidity: 60%, temperature: 23° C.).
(§2) MRI experiments were carried out using a 9.4 T scanner (BioSpec 94/20 USR, Bruker, Germany). During the experiment, mice were anesthetized using isoflurane (Aerrane, Baxter Sp. z o.o., Poland, 1.5% by volume) in an oxygen and air mixture (1:2). Cardiac activity, respiration rate and body temperature (maintained at 37° C., using circulating warm water) were monitored using Monitoring and Gating System (SA Inc., Stony Brook, N.Y., USA). Mice were imaged in the supine position to test endothelial function and permeability in various blood vessels.
(§3) Endothelium-dependent response to acetylcholine (Ach), expressed as changes in vessel volume, was assessed in the brachiocephalic artery (BCA) visible on the 3D image of the aortic arch (A) and in the abdominal aorta (AA) positioned on the sagittal view of the mouse (B). Assessment of vessel response to flow-mediated dilation (FMD), also expressed as changes in vessel volume, was performed in the femoral artery (FA), visible on the 3D image of the left hind limb (D). Pixels for which T1 had changed more than 50% after CA (Npx50) were marked in red on a representative cross-sectional image of blood vessels arising from the aortic arch (C).
To assess the sensitivity of endothelial dysfunction detection using the new contrast agent, being an invention, impaired endothelial function in ApoE/LDLR−/− mice was also assessed by other MRI-based techniques; detection of endothelium-dependent response to acetylcholine (FIG. 5) and measurement of increase in flow after short-term vessel occlusion (FMD, FIG. 6). As described in our recent publication(22), endothelium-dependent response to acetylcholine (Ach, FIG. 5B) in abdominal aorta (AA) is the most sensitive in vivo method to detect changes in endothelial phenotype. […]
Changes in the end-diastolic volume of brachiocephalic artery (A: BCA-ACH) and abdominal aorta (B: AA-ACH) 25 minutes after administration of acetylcholine in ApoE/LDLR−/− mice (white columns) of different ages: 4-week-old ApoE/LDLR−/− mice, 6-week-old ApoE/LDLR−/− mice, 8-week-old ApoE/LDLR−/− mice, 12-week-old ApoE/LDLR−/− mice, 28-week-old ApoE/LDLR−/− mice as compared to 8-week-old control C57BL/6 mice, (C57_8W, n=4, black columns). Statistics: one-way ANOVA followed by Tukey's post hoc test (normality was assessed using the Shapiro-Wilk test); *p<0.05, **p<0.01, ***p<0.001.

[2] = system: brachiocephalic artery (BCA) in ApoE/LDLR−/− mice; assay: MRI-based endothelium-dependent response to acetylcholine in brachiocephalic artery; assay type: in vivo
Method: as §1, §2, §3
To assess the sensitivity of endothelial dysfunction detection using the new contrast agent, being an invention, impaired endothelial function in ApoE/LDLR−/− mice was also assessed by other MRI-based techniques; detection of endothelium-dependent response to acetylcholine (FIG. 5) and measurement of increase in flow after short-term vessel occlusion (FMD, FIG. 6). […]

CC(=O)OCC[N+](C)(C)C [Ach, acetylcholine]
AA volume change ([1]; 4-week-old ApoE/LDLR−/− mice): about 23%
change in AA volume ([1]; 12-week-old ApoE/LDLR−/− mice): about −8%
change in AA volume ([1]; 28-week-old ApoE/LDLR−/− mice): ~−23%
AA volume change ([1]; control mice (8-week-old C57BL/6)): about 34%
changes in BCA volume ([2]; 4 to 8-week-old ApoE/LDLR−/− mice): approximately 10%
volume change in the BCA ([2]; 8-week-old control mice (C57BL/6)): 11.26%
BCA volume changes ([2]; 12-week-old ApoE/LDLR−/− mice): about 2%
